One experiment has as its system U-251. Description: Cytotoxicity against human U251 cells after 48 hrs by SRB assay. As to conditions: U-251, 48 h. It is filed as functional, cell-based. A general note: Sulforhodamine B stains cellular protein and so reports cell mass.
Another experiment has as its system K562. Description: Cytotoxicity against human K-562 cells after 48 hrs by SRB assay. It counts as functional, cell-based. The following applies: K562, 48 h.

In general, IC50 refers to the concentration that inhibits the measured activity by half. Low readings indicate higher potency, high ones lower potency. As for `C=C(C)[C@@H]1CC[C@@]2(C)[C@H]1[C@H]1CC[C@@H]3[C@@]4(C)CC[C@H](OC(=O)/C=C/c5ccc(O)cc5)C(C)(C)[C@@H]4CC[C@@]3(C)[C@]1(C)C[C@@H]2O`, half-maximal inhibition in the experiment on U-251 (IC50) required 41 µM.

For `C=C(C)[C@@H]1CC[C@@]2(C)[C@H]1[C@H]1CCC3[C@@]4(C)CC[C@H](O)C(C)(C)[C@@H]4CC[C@@]3(C)[C@]1(C)C[C@@H]2O` (stereo not given in full) [CALENDULADIOL], the IC50 in the experiment with U-251 was determined as 48.4 µM; with K562, 31.4 µM.

For `COc1cccc2c1C(=O)c1c(O)c3c(c(O)c1C2=O)C[C@@](O)(C(=O)CO)C[C@@H]3O[C@H]1C[C@H](N)[C@H](O)[C@H](C)O1` [DOXORUBICIN], the IC50 in the experiment with U-251 is 0.32 µM; with K562 it was 0.28 µM.

Values taken from ChEMBL document CHEMBL1158109, “Cytotoxic cis-fused bicyclic sesquiterpenoids from Jatropha neopauciflora” (J Nat Prod, 2006).
